From ChEMBL document CHEMBL5096176, “AAA ATPases as therapeutic targets: Structure, functions, and small-molecule inhibitors” (Eur J Med Chem, 2021)

Key:
Influenza A virus [1] = assay: Antiviral activity against Amantadine-resistant Influenza A virus (A/WSN/1933 (H1N1)) infected in MDCK cells over expressing ST6Gal I assessed as inhibition of viral replication by plaque assay; type: functional, organism-based
Influenza A virus [2] = assay: Antiviral activity against Oseltamivir-resistant Influenza A virus (A/North Carolina/39/2009 (H1N1)) infected in MDCK cells over expressing ST6Gal I assessed as inhibition of viral replication by plaque assay; type: functional, organism-based
[3] = Selectivity index, ratio of CC50 for MDCK cells to EC50 for Amantadine-resistant Influenza A virus (A/Washington/29/2009 (H1N1)) infected in MDCK cells; type: toxicity, cell-based; conditions: dog, read-out: Ratio CC50/EC50
[4] = Selectivity index, ratio of CC50 for MDCK cells to EC50 for Amantadine-resistant Influenza A virus (A/WSN/1933 (H1N1)) infected in MDCK cells; type: toxicity, cell-based; conditions: dog, read-out: Ratio CC50/EC50
Influenza A virus [5] = assay: Antiviral activity against Amantadine -resistant Influenza A virus (A/Washington/29/2009 (H1N1)) infected in MDCK cells overexpressing ST6Gal I assessed as inhibition of viral replication by plaque assay; type: functional, organism-based

Compound `Cc1cc(OCc2nnc(SC3CCCC3)n2-c2cccnc2)ccc1-c1ccc(S(C)(=O)=O)cc1` has an EC50 (Influenza A virus [1]) of 30 nM, an EC50 (Influenza A virus [2]) of 30 nM and a selectivity ratio [3] of 50. The selectivity ratio [4] was 50 and the EC50 (Influenza A virus [5]) was 30 nM.
